{"source": "patent US10973823B2", "about": "“Anti-cancer composition consisting of halofuginone and sesquiterpene lactone compounds of artemisia apiacea and use thereof” (Hong Kong Baptist University, priority 2016, dated 2021)", "settings_in_all_cases": "alone or combined, 24 hours", "key": {"[1]": {"tested_on": "gastric cancer cell MGC803", "assay": "MTT assay, gastric cancer cell MGC803", "type": "cell-based", "procedure": "(§1) Gastric cancer cell line MGC803 was seeded on a 96-well plate, with 100 μl of cell suspension in each well. The culture medium was DMEM supplemented with 10% FBS and 2 mM glutamate. […] 24 hours after adding the compound, the cell survival rate was assessed using the MTT assay, and the combination index (CI) of the combined pharmaceutical of HF and ATS was calculated using the Calcusyn software."}, "melanoma cell A375": {"tested_on": "melanoma cell A375", "assay": "MTT assay, melanoma cell A375", "type": "cell-based", "procedure": "as §1, with “Melanoma” for “Gastric cancer”, “A375” for “MGC803”"}, "liver cancer cell HepG2": {"tested_on": "liver cancer cell HepG2", "assay": "MTT assay, liver cancer cell HepG2", "type": "cell-based", "procedure": "as §1, with “Liver” for “Gastric”, “HepG2” for “MGC803”"}, "[2]": {"tested_on": "colon cancer cell HCT-116", "assay": "MTT assay, colon cancer cell HCT-116", "type": "cell-based, Human", "procedure": "as §1, with “Human colon” for “Gastric”, “HCT-116” for “MGC803”, “software. Tumor cell survival rate=the OD value of the experimental group/the OD value of the control group×100%” for “software.”"}, "breast cancer cell MCF-7": {"tested_on": "breast cancer cell MCF-7", "assay": "MTT assay, breast cancer cell MCF-7", "type": "cell-based", "procedure": "as §1, with “Breast” for “Gastric”, “MCF-7” for “MGC803”"}, "[3]": {"settings": "HF 10 nM, ATS/DAT/ASU/ATM 160 μM"}, "[4]": {"settings": "HF 20 nM, ATS/DAT/ASU/ATM 320 μM"}, "[5]": {"settings": "HF 40 nM, ATS/DAT/ASU/ATM 640 μM"}}}
{"compound": "C[C@H]1[C@H](OC(=O)CCC(=O)O)O[C@@H]2O[C@@]3(C)CC[C@H]4[C@H](C)CC[C@@H]1[C@@]24OO3", "note": "[ASU, artesunate]", "values": [{"measurement": "Cell death rate (%)", "setting": "[1]; HF 10 nM, lactone 160 μM", "result": "1.15 ± 0.92", "unit": "%"}, {"measurement": "Cell death rate (%)", "setting": "[1]; HF 20 nM, lactone 320 μM", "result": "5.31 ± 1.69", "unit": "%"}, {"measurement": "Cell death rate (%)", "setting": "[1]; HF 40 nM, lactone 640 μM", "result": "43.57 ± 2.56", "unit": "%"}, {"measurement": "Cell death rate (%)", "setting": "melanoma cell A375; HF 10 nM, lactone 160 μM", "result": "16.15 ± 4.90", "unit": "%"}, {"measurement": "Cell death rate (%)", "setting": "melanoma cell A375; HF 40 nM, lactone 640 μM", "result": "47.59 ± 3.93", "unit": "%"}, {"measurement": "Cell death rate (%)", "setting": "liver cancer cell HepG2; HF 10 nM, lactone 160 μM", "result": "0.95 ± 0.72", "unit": "%"}, {"measurement": "Cell death rate (%)", "setting": "liver cancer cell HepG2; HF 20 nM, lactone 320 μM", "result": "1.86 ± 0.09", "unit": "%"}, {"measurement": "Cell death rate (%)", "setting": "liver cancer cell HepG2; HF 40 nM, lactone 640 μM", "result": "6.57 ± 2.06", "unit": "%"}, {"measurement": "Cell death rate (%)", "setting": "[2]; [3]", "result": "35.15 ± 3.45", "unit": "%"}, {"measurement": "Cell death rate (%)", "setting": "[2]; [4]", "result": "48.31 ± 3.69", "unit": "%"}, {"measurement": "Cell death rate (%)", "setting": "[2]; [5]", "result": "53.52 ± 2.46", "unit": "%"}, {"measurement": "Cell death rate (%)", "setting": "breast cancer cell MCF-7; HF 10 nM, lactone 160 μM", "result": "9.15 ± 0.92", "unit": "%"}, {"measurement": "Cell death rate (%)", "setting": "breast cancer cell MCF-7; HF 20 nM, lactone 320 μM", "result": "16.31 ± 1.69", "unit": "%"}, {"measurement": "Cell death rate (%)", "setting": "breast cancer cell MCF-7; HF 40 nM, lactone 640 μM", "result": "33.57 ± 2.56", "unit": "%"}]}
{"compound": "CO[C@H]1O[C@@H]2O[C@@]3(C)CC[C@H]4[C@H](C)CC[C@@H]([C@H]1C)[C@@]24OO3", "note": "[ATM, artemether]", "values": [{"measurement": "Cell death rate (%)", "setting": "[2]; [3]", "result": "33.17 ± 4.46", "unit": "%"}, {"measurement": "Cell death rate (%)", "setting": "[2]; [4]", "result": "46.32 ± 3.45", "unit": "%"}, {"measurement": "Cell death rate (%)", "setting": "[2]; [5]", "result": "54.50 ± 2.50", "unit": "%"}]}
{"compound": "C[C@@H]1CC[C@H]2[C@@H](C)C(=O)O[C@@H]3O[C@@]4(C)CC[C@@H]1[C@]32OO4", "note": "[ATS, Artemisinin]", "values": [{"measurement": "Cell death rate (%)", "setting": "[1]; HF 10 nM, lactone 160 μM", "result": "1.00 ± 3.31", "unit": "%"}, {"measurement": "Cell death rate (%)", "setting": "[1]; HF 20 nM, lactone 320 μM", "result": "4.60 ± 5.51", "unit": "%"}, {"measurement": "Cell death rate (%)", "setting": "[1]; HF 40 nM, lactone 640 μM", "result": "40.00 ± 3.18", "unit": "%"}, {"measurement": "Cell death rate (%)", "setting": "melanoma cell A375; HF 10 nM, lactone 160 μM", "result": "16.50 ± 4.30", "unit": "%"}, {"measurement": "Cell death rate (%)", "setting": "melanoma cell A375; HF 20 nM, lactone 320 μM", "result": "26.30 ± 1.33", "unit": "%"}, {"measurement": "Cell death rate (%)", "setting": "melanoma cell A375; HF 40 nM, lactone 640 μM", "result": "46.50 ± 3.57", "unit": "%"}, {"measurement": "Cell death rate (%)", "setting": "liver cancer cell HepG2; HF 10 nM, lactone 160 μM", "result": "0.90 ± 0.95", "unit": "%"}, {"measurement": "Cell death rate (%)", "setting": "liver cancer cell HepG2; HF 20 nM, lactone 320 μM", "result": "1.60 ± 0.08", "unit": "%"}, {"measurement": "Cell death rate (%)", "setting": "liver cancer cell HepG2; HF 40 nM, lactone 640 μM", "result": "6.40 ± 2.71", "unit": "%"}, {"measurement": "Cell death rate (%)", "setting": "[2]; [3]", "result": "35.89 ± 3.91", "unit": "%"}, {"measurement": "Cell death rate (%)", "setting": "[2]; [4]", "result": "48.31 ± 3.61", "unit": "%"}, {"measurement": "Cell death rate (%)", "setting": "[2]; [5]", "result": "54.42 ± 2.44", "unit": "%"}, {"measurement": "Cell death rate (%)", "setting": "breast cancer cell MCF-7; HF 10 nM, lactone 160 μM", "result": "9.50 ± 0.77", "unit": "%"}, {"measurement": "Cell death rate (%)", "setting": "breast cancer cell MCF-7; HF 20 nM, lactone 320 μM", "result": "16.50 ± 1.47", "unit": "%"}, {"measurement": "Cell death rate (%)", "setting": "breast cancer cell MCF-7; HF 40 nM, lactone 640 μM", "result": "33.90 ± 2.00", "unit": "%"}]}
{"compound": "C[C@H]1[C@@H](O)O[C@@H]2O[C@@]3(C)CC[C@H]4[C@H](C)CC[C@@H]1[C@@]24OO3", "note": "[DAT, dihydroartemisinin]", "values": [{"measurement": "Cell death rate (%)", "setting": "[1]; HF 10 nM, lactone 160 μM", "result": "1.81 ± 0.83", "unit": "%"}, {"measurement": "Cell death rate (%)", "setting": "[1]; HF 20 nM, lactone 320 μM", "result": "5.32 ± 1.65", "unit": "%"}, {"measurement": "Cell death rate (%)", "setting": "[1]; HF 40 nM, lactone 640 μM", "result": "42.59 ± 2.43", "unit": "%"}, {"measurement": "Cell death rate (%)", "setting": "melanoma cell A375; HF 10 nM, lactone 160 μM", "result": "16.81 ± 5.83", "unit": "%"}, {"measurement": "Cell death rate (%)", "setting": "melanoma cell A375; HF 20 nM, lactone 320 μM", "result": "26.35 ± 1.64", "unit": "%"}, {"measurement": "Cell death rate (%)", "setting": "melanoma cell A375; HF 40 nM, lactone 640 μM", "result": "42.55 ± 4.42", "unit": "%"}, {"measurement": "Cell death rate (%)", "setting": "liver cancer cell HepG2; HF 10 nM, lactone 160 μM", "result": "0.81 ± 0.83", "unit": "%"}, {"measurement": "Cell death rate (%)", "setting": "liver cancer cell HepG2; HF 20 nM, lactone 320 μM", "result": "1.72 ± 0.15", "unit": "%"}, {"measurement": "Cell death rate (%)", "setting": "liver cancer cell HepG2; HF 40 nM, lactone 640 μM", "result": "6.59 ± 2.58", "unit": "%"}, {"measurement": "Cell death rate (%)", "setting": "[2]; [3]", "result": "36.80 ± 3.33", "unit": "%"}, {"measurement": "Cell death rate (%)", "setting": "[2]; [4]", "result": "47.32 ± 3.65", "unit": "%"}, {"measurement": "Cell death rate (%)", "setting": "[2]; [5]", "result": "55.57 ± 2.43", "unit": "%"}, {"measurement": "Cell death rate (%)", "setting": "breast cancer cell MCF-7; HF 10 nM, lactone 160 μM", "result": "8.81 ± 0.83", "unit": "%"}, {"measurement": "Cell death rate (%)", "setting": "breast cancer cell MCF-7; HF 20 nM, lactone 320 μM", "result": "16.32 ± 1.65", "unit": "%"}, {"measurement": "Cell death rate (%)", "setting": "breast cancer cell MCF-7; HF 40 nM, lactone 640 μM", "result": "32.59 ± 2.43", "unit": "%"}]}
{"compound": "O=C(CC1NCCCC1O)Cn1cnc2cc(Br)c(Cl)cc2c1=O", "note": "(centres unmarked) [HF, Halofuginone]", "values": [{"measurement": "Cell death rate (%)", "setting": "[1]; HF 10 nM, lactone 160 μM", "result": "8.10 ± 2.77", "unit": "%"}, {"measurement": "Cell death rate (%)", "setting": "[1]; HF 20 nM, lactone 320 μM", "result": "20.00 ± 4.18", "unit": "%"}, {"measurement": "Cell death rate (%)", "setting": "[1]; HF 40 nM, lactone 640 μM", "result": "29.00 ± 3.31", "unit": "%"}, {"measurement": "Cell death rate (%)", "setting": "melanoma cell A375; HF 10 nM, lactone 160 μM", "result": "5.70 ± 5.44", "unit": "%"}, {"measurement": "Cell death rate (%)", "setting": "melanoma cell A375; HF 20 nM, lactone 320 μM", "result": "17.70 ± 2.82", "unit": "%"}, {"measurement": "Cell death rate (%)", "setting": "melanoma cell A375; HF 40 nM, lactone 640 μM", "result": "35.70 ± 4.76", "unit": "%"}, {"measurement": "Cell death rate (%)", "setting": "liver cancer cell HepG2; HF 10 nM, lactone 160 μM", "result": "0.70 ± 3.11", "unit": "%"}, {"measurement": "Cell death rate (%)", "setting": "liver cancer cell HepG2; HF 20 nM, lactone 320 μM", "result": "1.00 ± 2.06", "unit": "%"}, {"measurement": "Cell death rate (%)", "setting": "liver cancer cell HepG2; HF 40 nM, lactone 640 μM", "result": "4.00 ± 2.21", "unit": "%"}, {"measurement": "Cell death rate (%)", "setting": "[2]; [3]", "result": "19.41 ± 4.03", "unit": "%"}, {"measurement": "Cell death rate (%)", "setting": "[2]; [4]", "result": "33.06 ± 3.32", "unit": "%"}, {"measurement": "Cell death rate (%)", "setting": "[2]; [5]", "result": "59.27 ± 0.41", "unit": "%"}, {"measurement": "Cell death rate (%)", "setting": "breast cancer cell MCF-7; HF 10 nM, lactone 160 μM", "result": "2.00 ± 1.28", "unit": "%"}, {"measurement": "Cell death rate (%)", "setting": "breast cancer cell MCF-7; HF 20 nM, lactone 320 μM", "result": "3.00 ± 0.55", "unit": "%"}, {"measurement": "Cell death rate (%)", "setting": "breast cancer cell MCF-7; HF 40 nM, lactone 640 μM", "result": "9.10 ± 1.79", "unit": "%"}]}
